What all share (assay type): cell-based
The test system of experiment [1] is LNCaP cells. Briefly: RT-qPCR expression of bimodal genes in LNCaP cells with and without R1881. To be noted: R1881 1 nM, relative to untreated cells, period of 36 hrs. Here is the method: (§1) LNCaP and PC3 cells routinely grown in the laboratory were transfected with SMARTpool siRNAs specifically targeting TGFBR2 and GSK3B, respectively, according to the manufacturer protocol (ThermoFisher). Unspecific scrambled siRNA was used as a negative control. Total RNA were prepared from transfected and control cells or from cells treated with R1881 (1 nM), a synthetic androgen agonist. Reverse transcription was performed using the SuperScript III kit (Invitrogen) on a Veriti 96-well Thermocycler (Applied Biosystems). Relative expression values of genes were shown as the average fold changes (2−ΔΔCt) from three individual experiments using UBB as an internal control and the untreated expression designated as 1.

The test system of experiment [2] is PC3 cells. Briefly: RT-qPCR expression of bimodal genes in PC3 cells with and without R1881. To be noted: R1881 1 nM, androgen-independent PC3 cells. Here is the method: as §1
In experiment [3] the test system is LNCaP cells. As to the kind of experiment: Cell proliferation, migration, and invasion assays (IncuCyte ZOOM), LNCaP. To be noted: R1881 1 nM (low-dose). The method, then: (§2) Cells were seeded in triplicate wells of a 96-well plate, and every three hours four independent images were taken per well and quantified for confluence percentage using the IncuCyte ZOOM system. To eliminate variations of cell size and seeding densities, relative cell densities at all time points' values were normalized to the initial time point's average confluence.
(§3) Cell monolayers were seeded to optimized confluent levels in a 96-well ImageLock Plate (Essen BioSciences). The 96-well WoundMaker created equal scratches in every well simultaneously for cell migration and invasion analysis (Essen BioSciences). For invasion assays, BD Matrigel™ Basement Membrane Matrix (BD Biosciences) was used for coating the ImageLock plates, creating a thick layer above the scratched monolayer, 0.1 and 4.0 mg/ml respectively. The IncuCyte ZOOM system's scan mode set to scratch wound and wide mode and captured 1 image every 3 hours. Migration and invasion were analyzed using the relative wound density percent (RWD %) metric.

For experiment [4], the system named is PC3 cells. Briefly: Cell proliferation, migration, and invasion assays (IncuCyte ZOOM), PC3. To be noted: R1881 1 nM, androgen-independent PC3 cells. The method, then: as §2, §3

With `C[C@]1(O)CC[C@H]2[C@@H]3CCC4=CC(=O)CCC4=C3C=C[C@@]21C` [R1881], in experiment [1], the “expression of CDKN1C” value is on record as “further repressed” and the “expression of CXCL6” value is given as “further repressed”. Further, the gene expression patterns entry in experiment [2] is on record as “did not alter”. In addition, in experiment [3], the cell growth entry is given as “did not cause noticeable changes”, the invasion result was “did not cause noticeable changes” and the migration result was “did not cause noticeable changes”. Also, the cellular phenotypes result in experiment [4] is “did not alter”.

(Values after patent US20170076040A1, “SINGLE-CELL ANALYSIS AS A SENSITIVE AND SPECIFIC METHOD FOR EARLY CANCER DETECTION” (THE BOARD OF REGENTS OF THE UNIVERSITY OF TEXAS SYSTEM, priority 2014, published 2017).)
